Test system: DEN-induced liver fibrosis/pre-cirrhosis
Assay: DEN-treated rats, treatment begun at 8, 12 or 15 weeks: Ishak score
Format: in vivo, male Wistar rats
Description: FIG. 8B is a bar graph depicting Ishak scores in male Wistar rats receiving weekly intraperitoneal injections of 50 mg/kg DEN for 18 weeks and vehicle only (n=8) or 2 mg/kg gefitnib (n=8) beginning at either 8, 12, or 15 weeks. *, significant.
Male Wistar rats received weekly intraperitoneal injections of DEN (50 mg/kg) for 16 weeks. Rats received vehicle control or gefitinib (2 mg/kg) daily beginning at either 8, 12, or 15 weeks and lasting until 18 weeks. To assess the extent of liver disease at the start of each treatment, a subgroup of rats were sacrificed after a two-week washout of DEN and the liver was harvested and processed for analysis. Masson's trichrome stains of liver sections from each animal were analyzed by a blinded pathologist. After 8 weeks and 12 weeks of DEN administration, no macroscopic findings were observed on the surface of the liver (FIG. 8A). […] After 15 weeks of DEN administration, the rats had progressed to late stage cirrhosis which could be observed macroscopically on the surface of the liver (FIG. 8A) as well as microscopically. Rats receiving vehicle or gefitinib were sacrificed at 18 weeks after a two-week washout of DEN. The liver was harvested and processed for analysis. Masson's trichrome stains of liver sections from each animal were scored by a blinded pathologist by the method of Ishak. […]

In the case of `COc1cc2ncnc(Nc3ccc(F)c(Cl)c3)c2cc1OCCCN1CCOCC1` [gefitinib, 4-Quinazolinamine, N-(3-chloro-4-fluorophenyl)-7-methoxy-6-(3-(4-morpholinyl)propoxy)], the “progression of liver fibrosis/pre-cirrhosis (Ishak)” value (2 mg/kg daily beginning at 8 weeks until 18 weeks) is reported as “inhibited the progression of liver fibrosis/pre-cirrhosis” and the “progression of liver fibrosis/pre-cirrhosis (Ishak)” value (2 mg/kg daily beginning at 12 weeks until 18 weeks) is reported as “inhibited the progression of liver fibrosis/pre-cirrhosis”.

Reference: patent publication US9072741B2, “Methods of treating liver fibrosis and pre-cirrhosis with epidermal growth factor receptor inhibitors” (The General Hospital Corporation, priority 2009, dated 2015)
